Earlier results, collected in patent US10967066B2, “Stapled acid-sensitive endosome disrupting alginates” (University of Pittsburgh—Of the Commonwealth System of …, priority 2015, dated 2021).

Tests used:
tumors = details: mice

Structure (SMILES): CC(C)c1cc(C(=O)[O-])c(O)c(C(C)C)c1.CC(C)c1cc(C(=O)[O-])c(O)c(C(C)C)c1.[Cu+2] [Cu(II)DIPS, copper(II) (3,5-diisopropylsalicylate)2]
- hydrogen peroxide accumulation and cell death in cancer cells (cancer cells): induce hydrogen peroxide accumulation due to the conversion of radical oxygen into hydrogen peroxide, with this accumulation of hydrogen peroxide leading to cell death in cancer cells
- clearing tumors (tumors): effective in clearing tumors in mice
